Measurements published in PMC3554773, “Screening of a Specific Peptide Binding to VPAC1 Receptor from a Phage Display Peptide Library” (PLoS ONE, 2013).
No end group written: not given here.

Molecular target: T1, VPAC1 receptor (CHO-K1/VPAC1 cells) (Homo sapiens, UniProt P32241)
T1 construct: expressed in transfected cells
T1 sequence (P32241 31-457): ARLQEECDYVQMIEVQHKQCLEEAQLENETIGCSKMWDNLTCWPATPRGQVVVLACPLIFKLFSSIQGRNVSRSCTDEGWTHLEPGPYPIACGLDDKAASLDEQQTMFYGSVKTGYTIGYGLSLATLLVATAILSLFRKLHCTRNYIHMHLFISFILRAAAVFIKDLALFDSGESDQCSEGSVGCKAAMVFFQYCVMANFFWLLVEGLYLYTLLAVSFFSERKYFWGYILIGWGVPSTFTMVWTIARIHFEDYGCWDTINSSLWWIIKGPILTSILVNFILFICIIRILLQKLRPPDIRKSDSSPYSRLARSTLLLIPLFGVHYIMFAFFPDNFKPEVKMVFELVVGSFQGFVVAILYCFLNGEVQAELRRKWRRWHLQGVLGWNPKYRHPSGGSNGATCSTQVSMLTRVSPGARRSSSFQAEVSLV
Assay: cellular ELISA, binding of phage clones to CHO-K1/VPAC1 versus wild-type CHO-K1 cells
Settings: 1×10^10 pfu/well, 37°C, 2 h, HRP-anti-M13, glutaral-fixed cells, triplicate, p<0.01

Row | Sequence | binding affinity to CHO-K1/VPAC1 cells compared with CHO-K1 cells (OD450 nm)
1 | TVKYSTLVEWPY [VP1] | higher affinity to CHO-K1/VPAC1 cells than CHO-K1 cells
2 | GWLRSPSLLFSN [VP16] | higher affinity to CHO-K1/VPAC1 cells than CHO-K1 cells
3 | YTSHFPLETWPQ [VP6] | higher affinity to CHO-K1/VPAC1 cells than CHO-K1 cells
4 | SFRFFPLDMWPH [VP8] | higher affinity to CHO-K1/VPAC1 cells than CHO-K1 cells
5 | DTFHSPLVALVS [VP5] | higher affinity to CHO-K1/VPAC1 cells than CHO-K1 cells
6 | GGSIAASELEYY [VP10] | higher affinity to CHO-K1/VPAC1 cells than CHO-K1 cells

Molecular target: T1, VPAC1 receptor (CHO-K1/VPAC1 cells)
Assay: competitive inhibition ELISA: binding of positive phage clone VP2 to CHO-K1/VPAC1 cells, inhibited by synthetic peptide
Settings: inhibition of phage VP2 binding to CHO-K1/VPAC1 cells; VIP value from Figure 5A
Method: Competitive binding inhibition between the positive phage clone and its encoded peptide was evaluated in this study using the competitive inhibition ELISA method. The procedure was similar to that of the cellular ELISA mentioned above in “Cell enzyme-linked immunosorbent assay”. Briefly, CHO-K1/VPAC1 cells were incubated with 100 µl of synthetic peptide encoded by the positive phage clone at various concentrations (0, 0.0001, 0.001, 0.01, 0.1, 1, 10 and 100 µg/ml) in a 96-well plate after it was blocked with 2% BSA. Subsequently, 1×10^10 pfu homologous positive phage clones was added to the cells and incubated at 37°C for 2 h. The unbound phages were washed away, and an HRP-conjugated anti-M13 monoclonal antibody was used to detect the bound phages as described above. The rate of inhibition was calculated using the following formula: rate of inhibition = (A value of inhibition control – A value of inhibition)/A value of inhibition control×100%. An unrelated peptide corresponding to an unrelated phage was used as a negative control.

Row | Sequence | IC50 of VP2 peptide compared with IC50 of VIP
7 | GFRFGALHEYNS [VP2] | significantly lower than the IC50 of VIP

Same assay, conditions: peptide 0-100 µg/ml; 1×10^10 pfu phage VP2, 37°C, 2 h

Row | Sequence | IC50
8 | GFRFGALHEYNS [VP2] | ~13.2 nM

Molecular target: T1, VPAC1 receptor (CHO-K1/VPAC1 cells)
Assay: in vitro subtractive panning of 12-mer phage display peptide library on CHO-K1/VPAC1 cells, DNA sequencing of clones
Assay type: binding
Settings: 60 phage clones randomly selected after fourth round of panning; three lacked exogenous sequence

Row | Sequence | Frequency (number of the peptide sequence appeared in the whole selected phage clones)
9 | GTFHSPLLDHKS [VP14] | 1
10 | GSFHSPLLAYVS [VP12] | 1
11 | TWKFEPLGTFID [VP4] | 3
12 | TVKYSTLVEWPY [VP1] | 8
13 | GWLRSPSLLFSN [VP16] | 2
14 | GYTFQPLNEWAI [VP18] | 1
15 | TYTFRPLYEPPL [VP17] | 1
16 | AYTTVPYMATLP [VP9] | 1
17 | YTSHFPLETWPQ [VP6] | 5
18 | SFRFFPLDMWPH [VP8] | 5
19 | DTGHSPEPGKVP [VP13] | 1
20 | TVTFAPLRMWHP [VP15] | 1
21 | ETVRQAEELFYV [VP7] | 1
22 | NSIALINDTHKR [VP3] | 2
23 | DTFHSPLVALVS [VP5] | 5
24 | HSTLKLGALTNY [VP11] | 1
25 | GGSIAASELEYY [VP10] | 2
